pIC50, pKi: −log10 of the molar value. In brackets after ≈: the same amount, converted by molar mass.
Legend:
Thermodynamic solubility = format: physicochemical; details: pH 7.4, aqueous buffer, thermodynamic from solid
[1] = test system: Nicotinic Ach Receptor (Neuronal); assay: CEREP ion channel-binding; details: 30 µM
PPAR gamma (Binding) = target: T1, PPAR gamma (Binding) (Homo sapiens, UniProt P37231); assay: CEREP NHR-binding
T1 construct: purchased Eurofins Cerep

L-Type Ca (verapamil) = assay: CEREP ion channel-binding; details: 30 µM
MERS_Plpro = MERS_Plpro (Middle East respiratory syndrome-related coronavirus, UniProt K9N7C7); assay: biochemical; set-up: species or system MERS-CoV
Sequence of MERS_Plpro (K9N7C7 1552-1823 limits assumed): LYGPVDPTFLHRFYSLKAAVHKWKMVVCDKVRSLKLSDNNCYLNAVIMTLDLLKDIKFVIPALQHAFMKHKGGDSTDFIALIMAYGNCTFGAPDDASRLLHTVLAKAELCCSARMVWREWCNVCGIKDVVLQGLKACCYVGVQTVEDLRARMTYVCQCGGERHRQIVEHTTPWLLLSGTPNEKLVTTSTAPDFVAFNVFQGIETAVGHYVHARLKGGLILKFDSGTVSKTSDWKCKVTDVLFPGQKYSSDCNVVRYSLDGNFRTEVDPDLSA

Src Kinase = target: T2, Src Kinase (Homo sapiens, UniProt P12931); assay: CEREP kinase inhibition; format: biochemical
T2 construct: purchased Eurofins Cerep
T2 sequence (P12931 whole entry): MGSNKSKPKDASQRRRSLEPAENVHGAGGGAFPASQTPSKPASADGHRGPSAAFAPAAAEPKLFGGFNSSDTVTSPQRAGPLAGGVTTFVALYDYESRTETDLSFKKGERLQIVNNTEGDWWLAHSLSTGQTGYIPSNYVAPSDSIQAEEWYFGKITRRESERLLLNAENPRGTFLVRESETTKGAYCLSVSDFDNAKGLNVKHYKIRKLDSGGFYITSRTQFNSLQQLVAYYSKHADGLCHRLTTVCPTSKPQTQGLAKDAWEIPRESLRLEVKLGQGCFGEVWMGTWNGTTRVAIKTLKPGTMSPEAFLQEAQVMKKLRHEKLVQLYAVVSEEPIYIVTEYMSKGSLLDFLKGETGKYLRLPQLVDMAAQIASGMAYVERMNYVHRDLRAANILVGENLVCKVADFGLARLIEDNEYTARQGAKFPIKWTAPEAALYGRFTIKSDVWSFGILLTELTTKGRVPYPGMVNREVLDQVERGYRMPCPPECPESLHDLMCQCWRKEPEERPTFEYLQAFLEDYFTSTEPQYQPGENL

[2] = target: T3, human Cav1.2/β2a/α2δ1 calcium channel (Homo sapiens, UniProt Q13936); assay: hCav1.2 automated patch clamp; format: cell-based; details: read-out: CaV IC50
T3 construct: assay run at Metrion Biosciences Ltd; host or cells: HEK
Procedure: 1000 rcf for 2 min and resuspended in CHO-S-SFM II (Gibco) at a density of 3 million cells […]
Ionic currents were evaluated in the whole-cell configuration using the Qube384 automated planar patch clamp platform (Sophion Bioscience A/S, Ballerup, Denmark). QChip 384X plates, containing 10 patch clamp holes per well, were used to maximize success rate, which was routinely > 95%. For hERG experiments, the external solution was composed of (in mM): 140 NaCl, 2 KCl, 2 CaCl2, 1 MgCl2, 10 HEPES, 5 Glucose, pH 7.4, 350 mOsM. The internal solution contained (in mM): 20 KCl, 10 EGTA, 10 HEPES, 120 KF, pH 7.2, 335 mOsM. The hERG current was elicited from a holding potential of -80 mV by a voltage step to +40 mV for 500 ms, followed by a repolarizing ramp to -80 mV at -0.6 mV/ms. […] Peak hERG current was measured during the ramp. […]
This was followed by the addition of increasing concentrations of test compound, with each exposure lasting 5 minutes. Patch clamp data were analyzed using Analyzer Software 6.4.72 (Sophion Bioscience A/S, Ballerup, Denmark). Current amplitudes were determined by averaging the last 4 currents under each test condition. […]
Hz, and hCav1.2 current was measured as the peak current at 0 mV. […]
exposure lasting 5 minutes. Patch clamp data were analyzed using Analyzer Software 6.4.72. Current amplitudes were determined by averaging the last 4 currents under each test condition. […]

[3] = test system: Nicotinic Ach Receptor (muscle); assay: CEREP ion channel-binding; details: 30 µM
LogD = format: physicochemical
in vitro [4] = details: male, Wistar-Hannover, rat, plasma
in vitro [5] = details: mouse, plasma
in vitro [6] = details: both, human, plasma
NMDA Receptor = assay: CEREP ion channel-binding; details: 30 µM
PDE3B = target: T4, PDE3B (Homo sapiens, UniProt Q13370); assay: CEREP enzyme inhibition; format: biochemical
T4 construct: purchased Eurofins Cerep
T4 sequence (Q13370 whole entry): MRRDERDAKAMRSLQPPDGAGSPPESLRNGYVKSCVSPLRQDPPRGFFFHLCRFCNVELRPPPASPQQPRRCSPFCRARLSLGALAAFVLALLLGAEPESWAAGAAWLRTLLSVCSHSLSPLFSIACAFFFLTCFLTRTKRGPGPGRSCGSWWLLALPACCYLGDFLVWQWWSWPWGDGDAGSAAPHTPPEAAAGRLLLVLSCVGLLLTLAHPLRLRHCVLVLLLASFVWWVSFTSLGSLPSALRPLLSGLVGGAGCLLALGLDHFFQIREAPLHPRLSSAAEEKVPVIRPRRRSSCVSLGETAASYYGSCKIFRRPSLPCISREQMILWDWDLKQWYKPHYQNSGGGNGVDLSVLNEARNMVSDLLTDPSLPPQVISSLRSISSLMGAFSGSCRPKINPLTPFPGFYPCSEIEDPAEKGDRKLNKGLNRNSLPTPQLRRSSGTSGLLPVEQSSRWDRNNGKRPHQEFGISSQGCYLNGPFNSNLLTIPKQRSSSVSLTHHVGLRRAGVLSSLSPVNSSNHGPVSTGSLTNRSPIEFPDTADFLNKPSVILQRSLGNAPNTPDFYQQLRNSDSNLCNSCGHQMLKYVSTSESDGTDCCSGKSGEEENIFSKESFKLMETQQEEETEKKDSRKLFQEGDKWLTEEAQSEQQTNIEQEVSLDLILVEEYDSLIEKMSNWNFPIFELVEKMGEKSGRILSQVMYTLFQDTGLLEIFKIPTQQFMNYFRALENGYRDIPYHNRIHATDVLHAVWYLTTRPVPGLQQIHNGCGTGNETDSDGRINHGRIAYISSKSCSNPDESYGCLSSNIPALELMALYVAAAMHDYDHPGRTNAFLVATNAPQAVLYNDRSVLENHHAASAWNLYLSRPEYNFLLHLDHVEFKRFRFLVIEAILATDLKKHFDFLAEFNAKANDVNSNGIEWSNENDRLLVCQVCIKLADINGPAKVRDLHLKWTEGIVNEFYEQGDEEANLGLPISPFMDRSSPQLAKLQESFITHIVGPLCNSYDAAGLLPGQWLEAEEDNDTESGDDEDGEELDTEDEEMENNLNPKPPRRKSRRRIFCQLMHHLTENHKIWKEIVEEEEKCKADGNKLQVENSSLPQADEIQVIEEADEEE

[7] = Metabolic stability in cryopreserved human hepatocytes

T1 sequence (P37231 whole entry): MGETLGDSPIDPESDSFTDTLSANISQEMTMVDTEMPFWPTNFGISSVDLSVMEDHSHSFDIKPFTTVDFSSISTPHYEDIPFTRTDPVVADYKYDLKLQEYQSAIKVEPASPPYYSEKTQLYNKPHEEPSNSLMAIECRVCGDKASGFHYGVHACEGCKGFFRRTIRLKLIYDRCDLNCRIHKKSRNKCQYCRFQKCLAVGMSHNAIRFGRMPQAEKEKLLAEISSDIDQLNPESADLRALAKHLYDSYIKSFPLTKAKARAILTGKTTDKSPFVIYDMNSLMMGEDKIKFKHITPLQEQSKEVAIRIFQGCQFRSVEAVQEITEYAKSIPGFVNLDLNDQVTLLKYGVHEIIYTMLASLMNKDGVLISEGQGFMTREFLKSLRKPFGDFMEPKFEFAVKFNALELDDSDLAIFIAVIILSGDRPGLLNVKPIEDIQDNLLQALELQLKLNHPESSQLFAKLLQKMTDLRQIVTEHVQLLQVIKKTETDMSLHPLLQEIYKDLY

SMILES: Cc1ccc(N2CCN(C)CC2)cc1C(=O)NC1(c2cc(-c3cnn(C)c3)nc3ccccc23)CC1 [Compound 4]
- solubility thermodynamic (Thermodynamic solubility): 541 µM (≈ 260 µg/mL)
- % inhibition [1]: -6%
- inhibition at 30 µM (PPAR gamma (Binding)): 9%
- % inhibition (L-Type Ca (verapamil)): -19%
- pKi (MERS_Plpro): < 5.00
- activity on MERS PL^pro (MERS_Plpro): nearly inactive
- inhibition at 30 µM (Src Kinase): -5%
- pIC50 [2]: < 4.00
- % inhibition [3]: 2%
- logD (LogD): 2.5
- fraction unbound (in vitro [4]): 0.241
- fraction unbound (in vitro [5]): 0.093
- fraction unbound (in vitro [6]): 0.109
- % inhibition (NMDA Receptor): -2%
- inhibition at 30 µM (PDE3B): 4%
- hepatocyte CLint [7]: 8.84 µL/min/1e6 cells

From article PMC11364104, “Discovery of SARS-CoV-2 papain-like protease (PL^pro) inhibitors with efficacy in a murine infection model” (Science Advances, 2024)
